The numbers were not newly measured in US11759504B2, “PTH compounds with low peak-to-trough ratios” (Ascendis Pharma Bone Diseases A/S, priority 2016, dated 2023), which cites them from elsewhere.

Like-named read-outs stand apart in the source and are kept apart here.

Assay in series [1]: not given
This is another data set of the same source.

For “Natpara: PTH(1-84), approved 2015 for once-daily subcutaneous injection as adjunct to vitamin D and calcium in hypoparathyroidism”, the “patients who developed hypercalcemia at one or more measurements during a 24-hour period” value (human, in vivo) is given as 71%. In addition, the urinary calcium excretion result (over the 24-hour period after injection) is given as “did not change”. Where the note is “pivotal trial, once-daily sc”, the “treated participants who achieved normal blood calcium levels on reduced doses of calcium supplements and active forms of vitamin D” value is on record as 42%. For the same molecule, the osteosarcoma rate entry in series [1] (rat, in vivo) is on record as “dose dependent increase in osteosarcoma rate”.
As to `CC[C@H](C)[C@H](NC(=O)[C@H](CCC(=O)O)NC(=O)[C@H](CO)NC(=O)[C@@H](NC(=O)[C@@H](N)CO)C(C)C)C(=O)N[C@@H](CCC(N)=O)C(=O)N[C@@H](CC(C)C)C(=O)N[C@@H](CCSC)C(=O)N[C@@H](Cc1cnc[nH]1)C(=O)N[C@@H](CC(N)=O)C(=O)N[C@@H](CC(C)C)C(=O)NCC(=O)N[C@@H](CCCCN)C(=O)N[C@@H](Cc1cnc[nH]1)C(=O)N[C@@H](CC(C)C)C(=O)N[C@@H](CC(N)=O)C(=O)N[C@@H](CO)C(=O)N[C@@H](CCSC)C(=O)N[C@@H](CCC(=O)O)C(=O)N[C@@H](CCCN=C(N)N)C(=O)N[C@H](C(=O)N[C@@H](CCC(=O)O)C(=O)N[C@@H](Cc1c[nH]c2ccccc12)C(=O)N[C@@H](CC(C)C)C(=O)N[C@@H](CCCN=C(N)N)C(=O)N[C@@H](CCCCN)C(=O)N[C@@H](CCCCN)C(=O)N[C@@H](CC(C)C)C(=O)N[C@@H](CCC(N)=O)C(=O)N[C@@H](CC(=O)O)C(=O)N[C@H](C(=O)N[C@@H](Cc1cnc[nH]1)C(=O)N[C@@H](CC(N)=O)C(=O)N[C@@H](Cc1ccccc1)C(=O)O)C(C)C)C(C)C` [Forteo], the osteosarcoma rate entry in series [1] (rats, daily injections) is recorded as “dose dependent increase in osteosarcoma rate”.
